According to patent publication US20060134119A1, “Drugs containing galectin 9” (priority 2003, published 2006):

Experiments:
CD8+ T cells = test: Apoptosis induction in peripheral blood CD8+ T cells, resting or anti-CD3 Ab-activated; assay type: cell-based, human; conditions: galectin (+), 1 μM rGal-9
Description: To prepare a well plate coated with anti-CD3 Ab, 24 well palates were incubated with TBS solution (pH 8.0) containing 3 μg/mL anti-CD3 Ab (Inmunotech, Marseille, France) per well at 4° C. overnight, and each well was washed with PBS after removing anti-CD3 Ab solution.
Mononuclear leukocyte fractions were isolated from heparinized blood using HISTOPAQUE (Registered trademark, SIGMA). CD4-Positive Isolation Kit (DYNAL, Oslo, Norway) was used for isolation of CD4+ T cells and Dynabeads M-450 CD8 (Registered trademark, DYNAL, Oslo, Norway) for isolation of CD8+ T cells, respectively, according to the manufacturer's instructions.
To activate T cells, CD4+ or CD8+ cells at 1×10^6 cells/mL in an RPMI-1640 medium containing 10% FCS were incubated on the plate coated with anti-CD3 Ab for 20 to 24 hr at 37° C. in a 5% CO2 incubator, and incubated with rGal-9 [(His)6-Gal-9(S)] at 37° C. in a 5% CO2 incubator. Then apoptosis assay was conducted as described in (c). That is, cells were incubated with 50 μg/mL PI (SIGMA) at 37° C. for 10 min in the dark. Stained cells were analyzed by flow cytometry (Sandstrom, K. et al., J Immunol Methods, 240: 55 (2000) and Zhang L. et al., Cancer Lett, 142: 129 (1999)).
Apoptosis assay was also conducted for non-activated (resting) T cells as described above after incubating them with rGal-9 [(His)6-Gal-9(S)] at 37° C. in a 5% Co2 incubator.
For comparison, galectin-1 and -3 treated cells were analyzed.
Next, apoptosis induction by Gal-9 in human peripheral blood T cells was examined. T cells were separated into CD4+ and CD8+ T cells followed by incubation in the presence or absence of anti-CD3 Ab. Resting T cells and anti-CD3 Ab-activated T cells were incubated with 1 μM rGal-9.

MOLT-4 cells = test: Effects of Gal-9 on DEX-, anti-Fas Ab- or etoposide-induced apoptosis; assay type: cell-based, human; conditions: FIG. 9
Source text: The following agents were purchased from suppliers below: DEX (BioVision, CA, US), anti-Fas Ab (clone CH-11, MBL), TNFα (Genzyme, Cambridge, Mass., US), C2 ceramide (SIGMA), and etoposide (Biovision).
Effects of Gal-9 on the apoptosis induced by other stimuli (e.g. DEX, anti-Fas Ab, and etoposide) were examined.

Galectin-9: Recombinant human galectin-9 expressed in E. coli and purified on lactose-agarose
apoptosis induction, CD8 (CD8+ T cells; CD3 (+) cells activated on anti-CD3 Ab-coated plates): 25.7
apoptosis induction, CD8 (CD8+ T cells; CD3 (−) untreated resting cells): 17.8
effect of rGal-9 on anti-Fas Ab-induced apoptosis (MOLT-4 cells): additional effects
effect of rGal-9 on etoposide-induced apoptosis (MOLT-4 cells): additional effects
percentage (%) of apoptotic cells, rGal-9 with DEX (MOLT-4 cells): scarcely little or no difference
